Our source for the Activity values is ChEMBL document CHEMBL3045443, “Mode for Herbicidal Action of 2-Amino-3-chloro-1,4-naphthoquinone (ACN)” (Biosci Biotechnol Biochem, 1994).

Holding throughout (type): functional
Assay [1] deals with Scenedesmus acutus. Put plainly: Herbicidal activity against Scenedesmus acutus assessed as ethane production per ml of packed-cell volume at 10^-6 M autotrophically for 20 hr by phytotoxicity assay (reference value: 0.28 nM/ml pcv).
Assay [2] concerns Scenedesmus acutus. Put plainly: Herbicidal activity against Scenedesmus acutus assessed as ethane production per ml of packed-cell volume at 10^-5 M autotrophically for 20 hr by phytotoxicity assay (reference value: 0.28 nM/ml pcv).
Assay [3] has as its system Scenedesmus acutus. Put plainly: Herbicidal activity against Scenedesmus acutus assessed as protoporphyrin-IX content per ml of packed-cell volume at 10^-6 M autotrophically for 20 hr by phytotoxicity assay (reference value: 2 nM/ml pcv).
In assay [4] the test system is Scenedesmus acutus. Put plainly: Herbicidal activity against Scenedesmus acutus assessed as protoporphyrin-IX content per ml of packed-cell volume at 10^-5 M autotrophically for 20 hr by phytotoxicity assay (reference value: 2 nM/ml pcv).
The test system of assay [5] is Scenedesmus acutus. The assay can be described thus: Herbicidal activity against Scenedesmus acutus assessed as chlorophyll content per ml of packed-cell volume at 10^-6 M autotrophically for 20 hr by phytotoxicity assay (reference value: 5.32 mg/ml pcv).
For assay [6], the system named is Scenedesmus acutus. Put plainly: Herbicidal activity against Scenedesmus acutus assessed as chlorophyll content per ml of packed-cell volume at 10^-5 M autotrophically for 20 hr by phytotoxicity assay (reference value: 5.32 mg/ml pcv).
The test system of assay [7] is Scenedesmus acutus. Put plainly: Herbicidal activity against Scenedesmus acutus assessed as packed-cell volume per ml of culture at 10^-6 M autotrophically for 20 hr by phytotoxicity assay (reference value: 6.6 ul pcv/ml).
Assay [8] has as its system Scenedesmus acutus. Put plainly: Herbicidal activity against Scenedesmus acutus assessed as packed-cell volume per ml of culture at 10^-5 M autotrophically for 20 hr by phytotoxicity assay (reference value: 6.6 ul pcv/ml).
The subject of assay [9] is Scenedesmus acutus. The assay can be described thus: Herbicidal activity against Scenedesmus acutus assessed as chlorophyll content per ml of packed-cell volume at 10^-7 M heterotrophically for 20 hr by phytotoxicity assay (reference value: 6.52 mg/ml pcv).
For assay [10], the system named is Scenedesmus acutus. Put plainly: Herbicidal activity against Scenedesmus acutus assessed as growth measured as packed-cell volume per ml of culture at 10^-7 M heterotrophically for 20 hr by phytotoxicity assay (reference value: 1.5 ul pcv/ml).
For assay [11], the system named is Scenedesmus acutus. Put plainly: Herbicidal activity against Scenedesmus acutus assessed as chlorophyll content per ml of packed-cell volume at 10^-6 M heterotrophically for 20 hr by phytotoxicity assay (reference value: 6.52 mg/ml pcv).
Assay [12] has as its system Scenedesmus acutus. The assay can be described thus: Herbicidal activity against Scenedesmus acutus assessed as chlorophyll content per ml of packed-cell volume at 10^-5 M heterotrophically for 20 hr by phytotoxicity assay (reference value: 6.52 mg/ml pcv).
For assay [13], the system named is Scenedesmus acutus. Put plainly: Herbicidal activity against Scenedesmus acutus assessed as growth measured as packed-cell volume per ml of culture at 10^-6 M heterotrophically for 20 hr by phytotoxicity assay (reference value: 1.5 ul pcv/ml).
The subject of assay [14] is Scenedesmus acutus. Put plainly: Herbicidal activity against Scenedesmus acutus assessed as growth measured as packed-cell volume per ml of culture at 10^-5 M heterotrophically for 20 hr by phytotoxicity assay (reference value: 1.5 ul pcv/ml).
The test system of assay [15] is Scenedesmus acutus. Put plainly: Herbicidal activity against Scenedesmus acutus assessed as ethane production per ml of packed-cell volume at 10^-4 M autotrophically for 20 hr by phytotoxicity assay (reference value: 0.28 nM/ml pcv).
Assay [16] has as its system Scenedesmus acutus. The assay can be described thus: Herbicidal activity against Scenedesmus acutus assessed as protoporphyrin-IX content per ml of packed-cell volume at 10^-4 M autotrophically for 20 hr by phytotoxicity assay (reference value: 2 nM/ml pcv).
Assay [17] deals with Scenedesmus acutus. Put plainly: Herbicidal activity against Scenedesmus acutus assessed as chlorophyll content per ml of packed-cell volume at 10^-4 M heterotrophically for 20 hr by phytotoxicity assay (reference value: 6.52 mg/ml pcv).
Assay [18] concerns Scenedesmus acutus. Put plainly: Herbicidal activity against Scenedesmus acutus assessed as growth measured as packed-cell volume per ml of culture at 10^-4 M heterotrophically for 20 hr by phytotoxicity assay (reference value: 1.5 ul pcv/ml).
Assay [19] deals with Scenedesmus acutus. The assay can be described thus: Herbicidal activity against Scenedesmus acutus assessed as chlorophyll content per ml of packed-cell volume at 10^-4 M autotrophically for 20 hr by phytotoxicity assay (reference value: 5.32 mg/ml pcv).
Assay [20] has as its system Scenedesmus acutus. Put plainly: Herbicidal activity against Scenedesmus acutus assessed as packed-cell volume per ml of culture at 10^-4 M autotrophically for 20 hr by phytotoxicity assay (reference value: 6.6 ul pcv/ml).

As for `CCC(C)c1cc([N+](=O)[O-])cc([N+](=O)[O-])c1O` (stereo unspecified) [DINOSEB], the Activity in the assay with Scenedesmus acutus [1] is on record as 0.18 nM; in the assay with Scenedesmus acutus [2] it was 0.34 nM; in the assay with Scenedesmus acutus [3] it was 1.5 nM; with Scenedesmus acutus [4], 2 nM; in the assay with Scenedesmus acutus [5], 5.5 mg; in the assay with Scenedesmus acutus [6], 5.91 mg. Moreover, the Activity is 6.6 µL in the assay on Scenedesmus acutus [7] and 5.3 µL in the assay with Scenedesmus acutus [8].
With `O=C1C2=C(CCCC2)C(=O)N1c1ccc(Cl)cc1` [CHLOROPHTHALIUM], the Activity turned out to be 8.77 nM in the assay with Scenedesmus acutus [1]; 23.5 nM with Scenedesmus acutus [3]; 0.25 mg with Scenedesmus acutus [5]; 6.65 mg with Scenedesmus acutus [9]; 1.3 µL in the assay with Scenedesmus acutus [10]; 4.9 mg in the assay on Scenedesmus acutus [11]. For the same compound, the Activity came to 2.85 mg in the assay with Scenedesmus acutus [12]; 1.1 µL in the assay with Scenedesmus acutus [13]; 1 µL in the assay on Scenedesmus acutus [14]; 0.17 mg in the assay with Scenedesmus acutus [6]; 2.8 µL with Scenedesmus acutus [7]; 2.4 µL with Scenedesmus acutus [8].
Regarding `NC1=C(Cl)C(=O)c2ccccc2C1=O`, the Activity with Scenedesmus acutus [1] worked out at 0.23 nM; in the assay with Scenedesmus acutus [2] it was 7.51 nM; with Scenedesmus acutus [15] it was 10.43 nM; with Scenedesmus acutus [3], 2 nM; in the assay with Scenedesmus acutus [4], 2 nM; with Scenedesmus acutus [16] it was 3.5 nM. Moreover, the Activity in the assay on Scenedesmus acutus [5] was 3.67 mg; with Scenedesmus acutus [11], 5.22 mg; with Scenedesmus acutus [12], 4.76 mg; with Scenedesmus acutus [17] it was 4.76 mg; in the assay on Scenedesmus acutus [13], 1.3 µL; with Scenedesmus acutus [14] it was 1.1 µL. Also, the Activity in the assay with Scenedesmus acutus [18] was found to be 1.1 µL; with Scenedesmus acutus [19], 0 mg; in the assay on Scenedesmus acutus [6], 0.07 mg; in the assay on Scenedesmus acutus [7], 4.2 µL; in the assay on Scenedesmus acutus [8] it was 2.6 µL; with Scenedesmus acutus [20], 2.1 µL.
With `N#Cc1cc(I)c(O)c(I)c1` [IOXYNIL], the Activity was 0.22 nM with Scenedesmus acutus [1]; 0.3 nM with Scenedesmus acutus [2]; 2.5 nM with Scenedesmus acutus [3]; 2 nM in the assay with Scenedesmus acutus [4]; 5.71 mg in the assay with Scenedesmus acutus [5]; 5.82 mg in the assay with Scenedesmus acutus [6]. The Activity with Scenedesmus acutus [7] came to 6.5 µL; in the assay with Scenedesmus acutus [8] it was 5.7 µL.
